Experimental data as given in patent US20250027956A1, “Improved Gamma-Secretase Inhibitor Screening Assays” (VIB VZW, priority 2021, published 2025).

Columns and labels:
[1] = tested on: WT MEFs; assay: Lysosomal Ca2+ content, Fura-2AM loaded cells challenged with GPN, WT cells; assay type: cell-based, mouse; settings: normalized to DMSO
Procedure: (§1) Cells were treated with the following drugs, usually for 4 days, unless otherwise stated: DAPT (2634/10, Tocris) 1 μM final; Inhibitor X (565771-250 μg, Calbiochem/Merck) 1 μM final; β-Secretase Inhibitor IV (565788, Calbiochem/Merck) 2 μM final, (2-Hydroxypropyl)-γ-cyclodextrin (H125-5G-I, Sigma Aldrich) 1 mM final; Adam 10 inhibitor G1254023X (SML0789, Sigma Aldrich) 3 μM final. For OSW-1 (30310-1, Sanbio/Cayman Chemical), cells were treated overnight with 10 nM. Diluent treatment alone (in most cases DMSO, water for the cyclodextrin) was used as vehicle control.
Cytosolic response: Ca2+ responses were measured as previously described in Coen et al 2012. Briefly, cells (0.005 to 0.01×106) were seeded two to three days prior to the experiment on glass coverslips (631-0153, VWR). On the day of recording, cells were rinsed three times in Ringer solution (155 mM NaCl, 5 mM KCl, 2 mM MgCl2, 2 mM CaCl2, 10 mM Glucose, 10 mM HEPES, 2 mM NaH2PO4·2H20; pH 7.3), and loaded 1 μM Fura2-AM (F1221, ThermoFisher Scientific) for 30 min (RT). Cells were rinsed three times and left to equilibrate for at least 15-20 min (RT). All acquisitions were carried out in Ringer Ca2+ free solution (same as above, albeit the 2 mM CaCl2 were replaced by 2 mM EGTA). During experiments, cells were challenged with different drugs, such as Thapsigargin (T7459, ThermoFisher Scientific, 1 μM final), GPN (ab145914, abcam, 100 μM final for MEFs, 500 μM for neurons), MLSA1 (Cat. No. 4746, Tocris, 20 μM final) or lonomycin (10634, Sigma Aldrich, 1 μM final). Images were acquired every 5 sec for 8-10 min, using an Olympus IX81 using an UAPO/340 40× oil objective (1.35 NA), operated by CellR Software (Olympus). Recordings were done using 340 and 380 nm excitation, and 530 nm emission filters. Image processing was performed using Image J Software (Schindelin et al 2012; Schneider et al 2012). Briefly, cells were segmented manually and fluorescence intensities were measured over time. Fura-2 signals were corrected to obtain ΔF/F0 (F0 being the initial signal recorded). For each cell, the area under the curve, corresponding to the aforementioned stimulation, was measured using GraphPad Prism.

[2] = tested on: APPKO cells; assay: Lysosomal Ca2+ content, Fura-2AM loaded cells challenged with GPN, APPKO cells; assay type: cell-based, mouse; settings: 1 μM, 4 days, normalized to DMSO
Source text: Diluent treatment alone (in most cases DMSO, water for the cyclodextrin) was used as vehicle control.
Briefly, the web-based CRISPR design tool was used to select the sequence to be targeted in mouse PSEN1 and PSEN2 (i.e. 5′-[…]-3′ and 5′-[…]-3′, respectively). Oligo pairs encoding guide sequences (obtained from Integrated DNA Technologies, IDT) were annealed and ligated into the pX330 plasmid (Addgene) according to the Zhang's laboratory protocol (https://www.addgene.org/crispr/zhang/). MEF cells were then transfected with the pX330-PSEN1 and PX330-PSEN2, using Fugene HD (Promega), in accordance with the manufacturer protocol. Selection of PSENdKO clones was achieved through serial dilution and confirmed by WB analysis. Further depletion of APP in different PSENdKO clones was achieved through electroporation of RNP complexes. […]
Cells were rinsed three times and left to equilibrate for at least 15-20 min (RT). […] Briefly, cells were segmented manually and fluorescence intensities were measured over time. Fura-2 signals were corrected to obtain ΔF/F0 (F0 being the initial signal recorded). For each cell, the area under the curve, corresponding to the aforementioned stimulation, was measured using GraphPad Prism.

[3] = tested on: WT MEFs; assay: Confocal immunofluorescence (compartment size, Mander's colocalization, filipin) in WT MEFs; assay type: cell-based, mouse
Procedure: as §1
Immunofluorescence: Cells were fixed (4% paraformaldehyde (PFA)/4% sucrose in PBS free of Ca2+ and Mg2+ (PBS−/−) 20 min, RT), permeabilized (0.1% triton X-100 in PBS−/−; 10 min, RT), and blocked (2% BSA, 2% FBS, 1% gelatin, and depending of the experiment 2% of goat or donkey serum (Bioké or Sigma), 1 h RT). Primary antibodies diluted in the same blocking buffer were incubated overnight at 4° C. Following PBS washing steps, (goat- or donkey-) secondary antibodies conjugated with Alexa fluor dyes (Alexa 488, 568, or 647, all ThermoFisher Scientific) diluted in the blocking buffer were incubated for 1 h, RT. Coverslips were then mounted with Mowiol (Sigma). When cholesterol labelling was performed, fixed cells were treated with 200 μg·ml−1 filipin (F4767, Sigma) for 2 h at RT, prior to permeabilization.
Acquisition: Z stack images (spacing 2 μm), or a median plan were acquired on a Nikon 1AR connected to an inverse Nikon Ti-2000 equipped with an oil-immersion plan APO 60× objective lenses with 1.40 NA. Data were collected using Nikon Imaging Software.
Image analysis: All image analysis was done using Image J software (Schindelin et al 2012; Schneider et al 2012). To measure the area of the organelle of interest (early endosomes-EEA1; lysosomes-Lamp1; retromer-VPS35 . . . ), segmentation was realized using automatic thresholding. The following masks were used: Mean (EEA1), Ostu (Lamp1), Intermodes (VPS35). Overlap of signal of interests were quantified with Manders colocalisation index (Plugin Jacob, (Bolte and Cordelieres 2006)). When indicated, co-localization data was normalized to the reference group for multiple comparisons.

[4] = tested on: WT MEFs; assay: Immunoblot of APP-CTFs in drug-treated WT MEFs; assay type: cell-based, mouse; settings: 1 μM for 1-4 days, vs DMSO
Procedure: as §1
Whole cell extracts were prepared starting from lysed cultured cells (80% confluency). Protein concentration was determined using the Bio-Rad DC protein assay (Bio-Rad). These extracts were run on 4-12% Bis-Tris Bolt or NuPAGE precast gels in MES/MOPS running buffer (Invitrogen), followed by transfer on nitrocellulose membranes (Life Technologies). Of note, for APP-CTFs characterization, samples were run on 16% tricine gels (Life Technologies) in the appropriate running buffer (LC1675, Life Technologies). Membranes were blocked with 5% non-fat milk (1 h, RT), incubated with primary antibodies (overnight, 4° C.), rinsed and incubated with HRP-conjugated secondary antibodies (1 h, RT). […]

[5] = tested on: lysosomal exocytosis; settings: cited from earlier work

SMILES | lysosomal Ca2+ content ([1]; 1 μM for 1-4 days, 100 μM GPN) | lysosomal Ca2+ content ([1]; WT cells, 1 μM, 4 days) | Lysosomal Ca2+ content (GPN-elicited Ca2+ response) [2] | early endosomes (EEA1) size ([3]; 1 μM for 1-4 days) | APP-CTF accumulation in LAMP1-positive LE/Lys (Mander's colocalization APP-Lamp1) ([3]; 1 μM for 1-4 days, vs DMSO) | cholesterol accumulation in LE/Lys (Filipin-Lamp1 colocalization) ([3]; 1 μM for 1-4 days, vs DMSO) | colocalization of VPS35 and EEA1 with Lamp1 ([3]; 1 μM for 1-4 days, from day 3 onward) | VPS35-positive organelles (size) ([3]; 1 μM, following 3 days of treatment) | APP-CTFs level (immunoblot) [4] | lysosomal exocytosis and cholesterol accumulation [5]
C[C@H](NC(=O)Cc1cc(F)cc(F)c1)C(=O)N[C@H](C(=O)OC(C)(C)C)c1ccccc1 [DAPT] | significantly reduced lysosomal Ca2+ content | reduced | did not affect the GPN-elicited Ca2+ response | significantly enlarged only after 4 days of treatment | increasing APP-CTF accumulation | only significantly from day 2 | increased colocalization of VPS35 and EEA1 with Lamp1 | found to be increased | rapidly accumulated APP-CTFs | –
O=c1c(-c2ccc(O)cc2)coc2cc(O)cc(O)c12 [Genistein] | – | – | – | – | – | – | – | – | – | increase lysosomal exocytosis with a decrease in cholesterol accumulation
